# Measurements reported in patent publication US20090298783A1, “Cosmetic Compositions” (Cognis IPanagement GmbH, priority 2006, published 2009).
# Marks after values point to notes of the source that are not given here.
# Tests used:
# [1] = system: GMCSF; experiment: Nickel-induced GMCSF release from human keratinocytes (ELISA); type: cell-based; settings: 48 hours
# Method: (§1) The soothing potential of silybin, piperin, rhapontin, nortrachelogenine and arctiin was evaluated on primary culture of human keratinocytes treated by a nickel salt (nickel chloride, Sigma) according to the method of Ermolli M, et al. “Nickel, cobalt and chromium-induced cytotoxicity and intracellular accumulation in human HaCaT keratinocytes” [Toxicology. 2001 Feb. 21; 159(1-2): 23-31] and compared to hydrocortisone (HOC; Sigma, France).
# (§2) After a growth phase in medium enriched by fetal calf serum, the cells were treated with the nickel salt and with the test compounds. After 48 hours at 37° C., CO2=5%, the level of released GMCSF (ELISA method) and cell viability (MTT test) were determined.
# [2] = system: primary culture of human keratinocytes; experiment: Cell viability (MTT test) of nickel-treated human keratinocytes; settings: nickel salt alone at 0.75 mM, 48 hours
# Method: as §1, §2
# [3] = first set, Ni 0.75 mM (=100) + test compound at 0.001%, mean +/- SEM on 3 separate assays
smiles,measurement,setting,value
"C[C@]12CCC(=O)C=C1CC[C@@H]1[C@@H]2[C@@H](O)C[C@@]2(C)[C@H]1CC[C@]2(O)C(=O)CO [HOC, hydrocortisone, reference compound]",GMCSF released,"[1]; second set, Ni 0.75 mM (=100) + test compound at 1 μM, mean on 1 assay in triplicate",52 percentage referring to control
"[Cl][Ni][Cl] [Nickel (Ni), nickel chloride]",MTT,"[2]; first set, mean +/- SEM on 3 separate assays",68 +/− 9 percentage referring to control
same,MTT,"[2]; first set, mean +/- SEM on 3 separate assays, listed as nickel",distinctly decreased cell viability
same,MTT,"[2]; second set, mean on 1 assay in triplicate",33 percentage referring to control
"O=C(/C=C/C=C/c1ccc2c(c1)OCO2)N1CCCCC1 [piperine, (E,E)-1-[5-(1,3-benzodioxol-5-yl)-1-oxo-2,4-pentadienyl]piperidine]",GMCSF released,[1]; [3],79 +/− 14 percentage referring to control
same,GMCSF released,"[1]; first set, Ni 0.75 mM (=100) + test compound at 0.003%, mean +/- SEM on 3 separate assays",29 +/− 13* percentage referring to control
same,GMCSF released,"[1]; first set, Ni 0.75 mM (=100) + test compound at 0.003%, mean +/- SEM on 3 separate assays, listed as Piperine",significantly lowered
"COc1ccc(/C=C/c2cc(O)cc(O[C@@H]3O[C@H](CO)[C@@H](O)[C@H](O)[C@H]3O)c2)cc1O [rhapontin, 3,3′,5-Trihydroxy-4′-methoxystilbene 3-b-D-glucopyranoside]",GMCSF released,"[1]; second set, Ni 0.75 mM (=100) + test compound at 0.01%, mean on 1 assay in triplicate",72 percentage referring to control
same,GMCSF released,"[1]; second set, Ni 0.75 mM (=100) + test compound at 0.01%, mean on 1 assay in triplicate, listed as Rhapontin",lowered
COc1cc([C@H]2Oc3cc([C@H]4Oc5cc(O)cc(O)c5C(=O)[C@@H]4O)ccc3O[C@@H]2CO)ccc1O [silybin],GMCSF released,"[1]; first set, Ni 0.75 mM (=100) + test compound at 0.0003%, mean +/- SEM on 3 separate assays",88 +/− 19 percentage referring to control
same,GMCSF released,[1]; [3],48 +/− 12* percentage referring to control
same,GMCSF released,"[1]; first set, Ni 0.75 mM (=100) + test compound at 0.001%, mean +/- SEM on 3 separate assays, listed as Silybin",significantly lowered
